# Measured values published in patent US20250281507A1, “METHODS OF TREATING NEPHROTIC SYNDROME” (The Research Institute at Nationwide Children's Hospital, priority 2021, published 2025).
# “And” between values parts separate entries of the source, which are not always exact repeats. Equal values may be shown once.
# Key:
# children with NS [1] = assay: Proteinuria (urine protein to creatinine ratio, UPCR) before and after addition of pioglitazone; type: in vivo, human; settings: for increase in proteinuria (UPCR): 5-7 months post-pioglitazone
# Excerpt: (§1) In the following clinical studies, the efficacy and safety of adding pioglitazone to reduce proteinuria in children with NS was examined. All children with NS identified worldwide to have been treated with pioglitazone were included, with no patients excluded. Each patient had pioglitazone added to their other NS medications at the discretion of their treating pediatric nephrologist. All patient records were reviewed in a de-identified manner, with prior ethics committee approval at each institution. Data were analyzed based on defined time periods before and after the addition of pioglitazone. Patients were defined as having responded to pioglitazone (i.e., Responders) if their urine protein to creatinine ratio (UPCR, mg/mg) decreased from the period 0-1 month pre-pioglitazone to the period 0-1 month post-pioglitazone. Glomerular filtration rate estimation (eGFR) in patients <18 years was calculated using the revised Schwartz equation. In patients >18 years, eGFR was calculated as the mean of the revised Schwartz and CKD-EPI creatinine equations. Quantitative data, such as patient age, duration of NS, pioglitazone dosage, and outcomes of UPCR, TIS, and serum albumin, were summarized as means (standard errors of mean), while categorical data such as renal survival status were summarized as frequency (percent). Due to a small sample size, Responders and Non-responders were compared using Wilcoxon Rank Sum tests on quantitative variables and Fisher's exact tests on categorical variables. For both Responders and Non-responders, pre-pioglitazone to post-pioglitazone initiation changes in UPCR, TIS, and serum albumin levels were analyzed using Wilcoxon Signed Rank tests. Numbers of hospitalizations pre-pioglitazone and post-pioglitazone initiation were analyzed and compared using Poisson distributions. Statistical significance was assessed at both the 0.05 and 0.10 levels. All analyses were conducted using SPSS software ver. 26 (IBM, Armonk, NY, USA).
# children with NS [2] = assay: Renal survival, renal function, remission and prednisone taper on pioglitazone; type: in vivo, human
# Excerpt: as §1
# [3] = Patient 2 (Responder), pre-PIO 6
# [4] = Patient 2 (Responder), vs 0-1 mo pre-PIO
# [5] = Patient 3 (Responder), pre-PIO 11.2
# [6] = Patient 3 (Responder), vs 0-1 mo pre-PIO
# [7] = Patient 5 (Non-responder), pre-PIO 0.46
# [8] = Patient 5 (Non-responder), vs 0-1 mo pre-PIO
# [9] = Patient 6 (Responder), pre-PIO 2.16
# [10] = Patient 6 (Responder), vs 0-1 mo pre-PIO
# [11] = Patient 7 (Non-responder), pre-PIO 7.5
# [12] = Patient 7 (Non-responder), vs 0-1 mo pre-PIO
# [13] = Patient 8 (Responder), pre-PIO 4.66
# [14] = Patient 8 (Responder), vs 0-1 mo pre-PIO
# [15] = mean of 5 Responders, pre-PIO 6.50
# [16] = mean of 5 Responders, vs 0-1 mo pre-PIO
structure (smiles),measurement,setting,value
CCc1ccc(CCOc2ccc(CC3SC(=O)NC3=O)cc2)nc1 (stereo not drawn) [pioglitazone],Post-PIO UPCR (0-1 mo; mg/mg),children with NS [1]; [3],2 mg/mg
same,Post-PIO UPCR (5-7 mo; mg/mg),children with NS [1]; [3],0.12 mg/mg
same,% UPCR Reduction (0-1 mo),children with NS [1]; [4],67% and 66.7%
same,% UPCR Reduction (5-7 mo),children with NS [1]; [4],98%
same,Post-PIO UPCR (0-1 mo; mg/mg),children with NS [1]; [5],6.4 mg/mg
same,Post-PIO UPCR (5-7 mo; mg/mg),children with NS [1]; [5],0.5 mg/mg
same,% UPCR Reduction (0-1 mo),children with NS [1]; [6],43% and 42.9%
same,% UPCR Reduction (5-7 mo),children with NS [1]; [6],96% and 95% and 95.5%
same,UPCR increase,"children with NS [1]; Patient 4 (Non-responder), over the next 1 month",133%
same,Post-PIO UPCR (0-1 mo; mg/mg),"children with NS [1]; Patient 4 (Non-responder), pre-PIO 28.8, urine obtained soon after IV albumin infusion",67.0 mg/mg and 67 mg/mg
same,% UPCR Reduction (0-1 mo),"children with NS [1]; Patient 4 (Non-responder), vs 0-1 mo pre-PIO",−133%
same,UPCR increase,"children with NS [1]; Patient 5 (Non-responder), 1-month post-PIO",139%
same,increase in proteinuria (UPCR),children with NS [1]; Patient 5 (Non-responder),24%
same,Post-PIO UPCR (0-1 mo; mg/mg),children with NS [1]; [7],1.1 mg/mg
same,Post-PIO UPCR (5-7 mo; mg/mg),children with NS [1]; [7],0.57 mg/mg
same,% UPCR Reduction (0-1 mo),children with NS [1]; [8],−139%
same,% UPCR Reduction (5-7 mo),children with NS [1]; [8],−23.9%
same,Post-PIO UPCR (0-1 mo; mg/mg),children with NS [1]; [9],1.09 mg/mg
same,Post-PIO UPCR (5-7 mo; mg/mg),children with NS [1]; [9],0.11 mg/mg
same,% UPCR Reduction (0-1 mo),children with NS [1]; [10],50% and 49.5%
same,% UPCR Reduction (5-7 mo),children with NS [1]; [10],95% and 94.9%
same,increase in proteinuria (UPCR),children with NS [1]; Patient 7 (Non-responder),77%
same,UPCR increase,"children with NS [1]; Patient 7 (Non-responder), over the next 1 month",13%
same,Post-PIO UPCR (0-1 mo; mg/mg),children with NS [1]; [11],8.5 mg/mg
same,Post-PIO UPCR (5-7 mo; mg/mg),children with NS [1]; [11],13.3 mg/mg
same,% UPCR Reduction (0-1 mo),children with NS [1]; [12],−13.3%
same,% UPCR Reduction (5-7 mo),children with NS [1]; [12],77.3%
same,Post-PIO UPCR (0-1 mo; mg/mg),children with NS [1]; [13],0.08 mg/mg
same,Post-PIO UPCR (5-7 mo; mg/mg),children with NS [1]; [13],0.06 mg/mg
same,% UPCR Reduction (0-1 mo),children with NS [1]; [14],98% and 98.3%
same,% UPCR Reduction (5-7 mo),children with NS [1]; [14],99% and 98.7%
same,"Post-PIO UPCR (0-1 mo; mg/mg), Mean (SEM)",children with NS [1]; [15],2.7 mg/mg and 2.71 mg/mg
same,"Post-PIO UPCR (5-7 mo; mg/mg), Mean (SEM)",children with NS [1]; [15],0.2 mg/mg and 0.20 mg/mg
same,"% UPCR Reduction (0-1 mo), Mean (SEM)",children with NS [1]; [16],62% and 62.1%
same,"% UPCR Reduction (5-7 mo), Mean (SEM)",children with NS [1]; [16],97%
same,"Post-PIO UPCR (5-7 mo; mg/mg), Mean (SEM)",children with NS [1]; mean of Non-responders (Patient 4 ESRD),6.94 mg/mg
same,"% UPCR Reduction (5-7 mo), Mean (SEM)",children with NS [1]; mean of Non-responders (Patient 4 NA),−50.6%
same,"Post-PIO UPCR (0-1 mo; mg/mg), Mean (SEM)","children with NS [1]; mean of Non-responders, pre-PIO 12.3",25.5 mg/mg
same,"% UPCR Reduction (0-1 mo), Mean (SEM)","children with NS [1]; mean of Non-responders, vs 0-1 mo pre-PIO",−95.0%
same,"UPCR reduction in Responders, range",children with NS [1]; within the first month of pioglitazone treatment,43-98%
same,"UPCR in Responders, range","children with NS [1]; within the first month of pioglitazone treatment, pre range 2.2-11.2",0.1 to 6.4 mg/mg
same,"Renal Survival, % survival",children with NS [2]; 3 Non-responders,33.3%
same,"Renal Survival, % survival",children with NS [2]; 5 Responders,100%
same,Renal Survival,children with NS [2]; Patient 1 (Responder),yes
same,renal function,"children with NS [2]; Patient 1, during pioglitazone treatment",maintained normal renal function
same,Renal Survival,children with NS [2]; Patient 2 (Responder),yes
same,renal function,"children with NS [2]; Patient 2, during pioglitazone treatment",maintained normal renal function
same,PRED dose after taper,"children with NS [2]; Patient 2, orally QD, from 30 mg/d",5 mg
same,remission,"children with NS [2]; Patient 2, pioglitazone 15 mg orally QD for 16 weeks",achieved full remission
same,Renal Survival,children with NS [2]; Patient 3 (Responder),yes
same,Prednisone dose after decrease,"children with NS [2]; Patient 3, from 40 mg/d",20 mg/day
same,Renal Survival,"children with NS [2]; Patient 4 (Non-responder), cFSGS, AKI at presentation",no
same,renal function,"children with NS [2]; Patient 4, during pioglitazone treatment",renal function continued to worsen
same,Renal Survival,children with NS [2]; Patient 5 (Non-responder),yes
same,NS relapses,"children with NS [2]; Patient 5, on pioglitazone for 2.5 years",continued to have NS relapses
same,Renal Survival,children with NS [2]; Patient 6 (Responder),yes
same,serum creatinine,"children with NS [2]; Patient 6, on MMF and pioglitazone",0.90 mg/dL
same,Renal Survival,children with NS [2]; Patient 7 (Non-responder),no
same,renal function,"children with NS [2]; Patient 7, pre-pioglitazone eGFR 44 ml/min/1.73 m^2",remained stable during the 6 months of pioglitazone treatment
same,Renal Survival,children with NS [2]; Patient 8 (Responder),yes
same,renal function,"children with NS [2]; Patient 8, during pioglitazone treatment",renal function remained normal
same,remission,"children with NS [2]; Patient 8, following 5-7 months",remained in complete remission
same,PRED dose after taper,"children with NS [2]; Patient 8, from 25 mg/d",10 mg/day
